We go through four molecules from patent US8741836B2, “Polypeptides” (Novo Nordisk A/S, priority 2011, dated 2014).

The data set is described as follows: Assay (III) ThT fibrillation assay for physical stability. Type of data set: physicochemical. Conditions: for ThT pH 4.0 lag time: pH 4.0, ThT fibrillation assay. An excerpt:
Assay (III)—ThT Fibrillation Assays for the Assessment of Physical Stability of Protein formulations Low physical stability of a polypeptide may lead to amyloid fibril formation, which is observed as well-ordered, thread-like macromolecular structures in the sample eventually resulting in gel formation. This has traditionally been measured by visual inspection of the sample. However, that kind of measurement is very subjective and depending on the observer. Therefore, the application of a small molecule indicator probe is much more advantageous. Thioflavin T (ThT) is such a probe and has a distinct fluorescence signature when binding to fibrils [Naiki et al. (1989) Anal. Biochem. 177, 244-249; LeVine (1999) Methods. Enzymol. […], 274-284]. The time course for fibril formation can be described by a sigmoidal curve with the following expression [Nielsen et al. (2001) Biochemistry 40, 6036-6046]: [formula] Here, F is the ThT fluorescence at the time t. The constant t0 is the time needed to reach 50% of maximum fluorescence. […] Few of those intermediates nucleate to form a template onto which further intermediates may assembly and the fibrillation proceeds. The lag-time corresponds to the interval in which the critical mass of nucleus is built up and the apparent rate constant is the rate with which the fibril itself is formed. Sample Preparation Samples were prepared freshly before each assay. Each sample composition is described in each example. The pH of the sample was adjusted to the desired value using appropriate amounts of concentrated NaOH and HClO4 or HCl. Thioflavin T was added to the samples from a stock solution in H2O to a final concentration of 1 μM. Sample aliquots of 200 μl were placed in a 96 well microtiter plate (Packard OptiPlate™-96, white polystyrene). Usually, four or eight replica of each sample (corresponding to one test condition) were placed in one column of wells. The plate was sealed with Scotch Pad (Qiagen). Incubation and Fluorescence Measurement Incubation at given temperature, shaking and measurement of the ThT fluorescence emission were done in a Fluoroskan Ascent FL fluorescence platereader or Varioskan platereader (Thermo Labsystems). The temperature was adjusted to 37° C. The orbital shaking was adjusted to 960 rpm with an amplitude of 1 mm in all the presented data. Fluorescence measurement was done using excitation through a 444 nm filter and measurement of emission through a 485 nm filter. Each run was initiated by incubating the plate at the assay temperature for 10 min. The plate was measured every 20 minutes for a desired period of time. Between each measurement, the plate was shaken and heated as described. Data Handling The measurement points were saved in Microsoft Excel format for further processing and curve drawing and fitting was performed using GraphPad Prism. The background emission from ThT in the absence of fibrils was negligible. The data points are typically a mean of four or eight samples and shown with standard deviation error bars. Only data obtained in the same experiment (i.e. samples on the same plate) are presented in the same graph ensuring a relative measure of fibrillation between experiments. The data set may be fitted to Eq. (1). However, since full sigmodial curves in this case are not always achieved during the measurement time, the degree of fibrillation is expressed as ThT fluorescence tabulated as the mean of the samples and shown with the standard deviation at various time points. Measurement of Initial and Final Concentrations The polypeptide concentration in each of the tested formulations were measured both before application in the ThT fibrillation assay (“Initial”) and after completion of the ThT fibrillation (“After ThT assay”). Concentrations were determined by reverse HPLC methods using a pramlintide standard as a reference. Before measurement after completion 150 μl was collected from each of the replica and transferred to an Eppendorf tube. […]

Starred links: 1 amine or outer side, 2 acyl side, 3 side chain; linkers in the order of their positions; H or OH if unused. Positions of bridges follow the written chain, without caps; N, C: chain ends. Residues, ends and D or L forms follow the SMILES beside them. Groups on a side chain read outwards from the residue. *: point of attachment. C20 diacid = O=C(O)CCCCCCCCCCCCCCCCCCC(=O)*; γGlu = O=C(O)[C@H](CCC(=O)[*:2])N[*:1]; AEEA = NCCOCCOCC(=O)O Some results are limits rather than exact numbers.

For the molecule `CC[C@H](C)[C@H](NC(=O)[C@@H]1CCCN1C(=O)CNC(=O)[C@H](Cc1ccccc1)NC(=O)[C@H](CC(N)=O)NC(=O)[C@H](CCCCNC(=O)COCCOCCNC(=O)COCCOCCNC(=O)CC[C@H](NC(=O)CCCCCCCCCCCCCCCCCCC(=O)O)C(=O)O)NC(=O)[C@H](CO)NC(=O)[C@H](CO)NC(=O)[C@H](CCCNC(=N)N)NC(=O)[C@@H](NC(=O)[C@H](CC(C)C)NC(=O)[C@H](Cc1ccccc1)NC(=O)[C@H](CCC(=O)O)NC(=O)[C@H](C)NC(=O)[C@H](CC(C)C)NC(=O)[C@H](CCCNC(=N)N)NC(=O)[C@H](CCC(N)=O)NC(=O)[C@@H](NC(=O)[C@H](C)NC(=O)[C@@H]1CSSC[C@H](NC(=O)[C@@H](N)CCCCN)C(=O)N[C@@H](CC(N)=O)C(=O)N[C@@H]([C@@H](C)O)C(=O)N[C@@H](C)C(=O)N[C@@H]([C@@H](C)O)C(=O)N1)[C@@H](C)O)C(C)C)C(=O)N[C@@H](CC(C)C)C(=O)N[C@@H](CO)C(=O)N[C@@H](CCCNC(=N)N)C(=O)N[C@H](C(=O)N[C@@H](CC(N)=O)C(=O)N[C@H](C(=O)NCC(=O)N[C@@H](CO)C(=O)N[C@@H](CCCNC(=N)N)C(=O)N[C@H](C(=O)N[C@@H](Cc1ccc(O)cc1)C(N)=O)[C@@H](C)O)C(C)C)[C@@H](C)O` [Example 150, N-epsilon21-[2-(2-{2-[2-(2-{2-[(S)-4-Carboxy-4-(19-carboxyheptadecanoylamino)butyrylamino]ethoxy}ethoxy)acetylamino]ethoxy}ethoxy)acetyl]-[Glu14,Arg18,Lys21,Ser28,Arg29,Arg35]-pramlintide] (H-KCNTATCATQRLAEFLVRSSK([AEEA-AEEA-γGlu-C20 diacid])NFGPILSRTNVGSRTY-NH2; disulfide 2-7), for the setting “pH 4.0”, the “ThT pH 4.0 lag time (physical stability in fibrillogenesis assay)” value is given as greater than 45 h.

Regarding `CC[C@H](C)[C@H](NC(=O)[C@@H]1CCCN1C(=O)CNC(=O)[C@H](Cc1ccccc1)NC(=O)[C@H](CC(N)=O)NC(=O)[C@H](CC(N)=O)NC(=O)[C@H](CO)NC(=O)[C@H](CO)NC(=O)[C@H](Cc1c[nH]cn1)NC(=O)[C@H](Cc1c[nH]cn1)NC(=O)[C@H](CC(C)C)NC(=O)[C@H](Cc1ccccc1)NC(=O)[C@H](CCC(=O)O)NC(=O)[C@H](C)NC(=O)[C@H](CC(C)C)NC(=O)[C@H](CCCNC(=N)N)NC(=O)[C@H](CCC(N)=O)NC(=O)[C@@H](NC(=O)[C@H](C)NC(=O)[C@@H]1CSSC[C@H](NC(=O)[C@H](CCCNC(=N)N)NC(=O)CNC(=O)CC[C@H](NC(=O)CCCCCCCCCCCCCCCCCCC(=O)O)C(=O)O)C(=O)N[C@@H](CC(N)=O)C(=O)N[C@@H]([C@@H](C)O)C(=O)N[C@@H](C)C(=O)N[C@@H]([C@@H](C)O)C(=O)N1)[C@@H](C)O)C(=O)N[C@@H](CC(C)C)C(=O)N1CCC[C@H]1C(=O)N1CCC[C@H]1C(=O)N[C@H](C(=O)N[C@@H](CC(N)=O)C(=O)N[C@H](C(=O)NCC(=O)N[C@@H](CO)C(=O)N[C@@H](Cc1c[nH]cn1)C(=O)N[C@H](C(=O)N[C@@H](Cc1ccc(O)cc1)C(N)=O)[C@@H](C)O)C(C)C)[C@@H](C)O` [Example 100, N-alpha-[(S)-4-Carboxy-4-(19-carboxynonadecanoylamino)butyryl]-Gly-[Arg1,Glu14,His17,His35]-pramlintide] ({C20 diacid-γGlu}-GRCNTATCATQRLAEFLHHSSNNFGPILPPTNVGSHTY-NH2; disulfide 3-8 (inferred)), the “ThT pH 4.0 lag time” value was 26 h. `CC[C@H](C)[C@H](NC(=O)[C@@H]1CCCN1C(=O)CNC(=O)[C@H](Cc1ccccc1)NC(=O)[C@H](CC(N)=O)NC(=O)[C@H](CC(N)=O)NC(=O)[C@H](CO)NC(=O)[C@H](CO)NC(=O)[C@H](Cc1c[nH]cn1)NC(=O)[C@H](CCCNC(=N)N)NC(=O)[C@H](CC(C)C)NC(=O)[C@H](Cc1ccccc1)NC(=O)[C@H](CCC(=O)O)NC(=O)[C@H](C)NC(=O)[C@H](CC(C)C)NC(=O)[C@H](CCCNC(=N)N)NC(=O)[C@H](CCC(N)=O)NC(=O)[C@@H](NC(=O)[C@H](C)NC(=O)[C@@H]1CSSC[C@H](NC(=O)[C@H](CCCCN)NC(=O)[C@H](Cc2c[nH]cn2)NC(=O)[C@H](Cc2c[nH]cn2)NC(=O)CC[C@H](NC(=O)CCCCCCCCCCCCCCCCCCC(=O)O)C(=O)O)C(=O)N[C@@H](CC(N)=O)C(=O)N[C@@H]([C@@H](C)O)C(=O)N[C@@H](C)C(=O)N[C@@H]([C@@H](C)O)C(=O)N1)[C@@H](C)O)C(=O)N[C@@H](CC(C)C)C(=O)N1CCC[C@H]1C(=O)N1CCC[C@H]1C(=O)N[C@H](C(=O)N[C@@H](CC(N)=O)C(=O)N[C@H](C(=O)NCC(=O)N[C@@H](CO)C(=O)N[C@@H](Cc1c[nH]cn1)C(=O)N[C@H](C(=O)N[C@@H](Cc1ccc(O)cc1)C(N)=O)[C@@H](C)O)C(C)C)[C@@H](C)O` [Example 69, N-alpha-[(S)-4-Carboxy-4-(19-carboxynonadecanoylamino)butyryl]-His-His-[Glu14,Arg17,His35]-pramlintide] ({C20 diacid-γGlu}-HHKCNTATCATQRLAEFLRHSSNNFGPILPPTNVGSHTY-NH2; disulfide 4-9): the “ThT pH 4.0 lag time” value is recorded as greater than 45 h. Turning to `CC[C@H](C)[C@H](NC(=O)[C@@H]1CCCN1C(=O)CNC(=O)[C@H](Cc1ccccc1)NC(=O)[C@H](CC(N)=O)NC(=O)[C@H](CC(=O)O)NC(=O)[C@H](CO)NC(=O)[C@H](CO)NC(=O)[C@H](Cc1c[nH]cn1)NC(=O)[C@H](Cc1c[nH]cn1)NC(=O)[C@H](CC(C)C)NC(=O)[C@H](Cc1ccccc1)NC(=O)[C@H](CCC(=O)O)NC(=O)[C@H](C)NC(=O)[C@H](CC(C)C)NC(=O)[C@H](CCCNC(=N)N)NC(=O)[C@H](CCC(N)=O)NC(=O)[C@@H](NC(=O)[C@H](C)NC(=O)[C@@H]1CSSC[C@H](NC(=O)[C@H](CCCCN)NC(=O)CC[C@H](NC(=O)CCCCCCCCCCCCCCCCCCC(=O)O)C(=O)O)C(=O)N[C@@H](CC(N)=O)C(=O)N[C@@H]([C@@H](C)O)C(=O)N[C@@H](C)C(=O)N[C@@H]([C@@H](C)O)C(=O)N1)[C@@H](C)O)C(=O)N[C@@H](CC(C)C)C(=O)N1CCC[C@H]1C(=O)N1CCC[C@H]1C(=O)N[C@H](C(=O)N[C@@H](CC(N)=O)C(=O)N[C@H](C(=O)NCC(=O)N[C@@H](CO)C(=O)N[C@@H](Cc1c[nH]cn1)C(=O)N[C@H](C(=O)N[C@@H](Cc1ccc(O)cc1)C(N)=O)[C@@H](C)O)C(C)C)[C@@H](C)O` [Example 128, N-alpha-[(S)-4-Carboxy-4-(19-carboxynonadecanoylamino)butyryl]-[Glu14,His17,Asp21,His35]-pramlintide] ({C20 diacid-γGlu}-KCNTATCATQRLAEFLHHSSDNFGPILPPTNVGSHTY-NH2; disulfide 2-7), the “ThT pH 4.0 lag time” value is greater than 45 h.
